We go through 19 molecules from patent publication US12275715B2, “Pyridin-2(1H)-one quinolinone derivatives as mutant-isocitrate dehydrogenase inhibitors” (FORMA Therapeutics, Inc., priority 2014, dated 2025).

Structures are written as SMILES. A value given as a limit tells only on which side of the number the result lay.

Assay [1] has as its target IDH1-R132C recombinant protein (Homo sapiens, UniProt O75874, R132C). Briefly: IDH1-R132C enzymatic assay (NADPH consumption, diaphorase/resazurin readout). The class given is biochemical. The conditions noted are these: read-out: Enzyme IDH1 R132C Range. The procedure:
(§1) Assays were performed in a 384-well black plate. […] After the plate was centrifuged briefly, an aliquot of 10 μL of 2 mM α-ketoglutarate and 20 μM NADPH solution prepared in assay buffer was then added to each well and the reaction was maintained at 25° C. for 45 minutes. An aliquot of 10 μL of diaphorase solution (0.15 U/mL diaphorase and 30 μM Resazurin in assay buffer) was added to each well. […] The IC50 of a given compound was calculated by fitting the dose response curve of inhibition of NADPH consumption at a given concentration with the four parameter logistic equation.

The target of assay [2] is IDH1-R132H recombinant protein (Homo sapiens, UniProt O75874, R132H). Put plainly: IDH1-R132H enzymatic assay (NADPH consumption, diaphorase/resazurin readout). The conditions noted are these: read-out: Enzyme IDH1 R132H Range. It is filed as biochemical. How it is done:
as §1

Assay [3] concerns HCT116 isogenic IDH1-R132C mutant cells. Briefly: Cellular 2-HG assay using HCT116 mutant IDH1 cells (R132C). The conditions noted are these: Homo sapiens, HCT-116; cellular 2-HG inhibition, 24 hours, RapidFire mass spectrometry; read-out: HCT116 IDH1 R132C Range. The class given is cell-based. How it is done:
(§2) HCT116 isogenic IDH1-R132H and IDH1-R132C mutant cells were cultured in growth media (McCoy's 5A, 10% fetal bovine serum, 1× antibiotic-antimycotic solution and 0.3 mg/mL G418) in 5% CO2 in an incubator at 37° C. To prepare the assay, cells were trypsinized and resuspended in assay media (McCoy's 5A with no L-glutamine, 10% fetal bovine serum, 1× antibiotic-antimycotic solution and 0.3 mg/mL G418). An aliquot of 10,000 cells/100 μL was transferred to each well of a clear 96-well tissue culture plate. The cells were incubated in 5% CO2 at 37° C. in an incubator overnight to allow for proper cell attachment. An aliquot of 50 μL of compound containing assay media were then added to each well and the assay plate was kept in 5% CO2 at 37° C. in an incubator for 24 hours. The media was then removed from each well and 150 μL of a methanol/water mixture (80/20 v/v) was added to each well. The plates were kept at −80° C. freezer overnight to allow for complete cell lysis. An aliquot of 125 μL of extracted supernatant was analyzed by RapidFire high-throughout-mass spectrometry (Agilent) to determine the cellular 2-HG level. The IC50 of a given compound was calculated by fitting the dose response curve of cellular 2-HG inhibition at a given concentration with the four parameter logistic equation

Assay [4] concerns HCT116 isogenic IDH1-R132H mutant cells. Put plainly: Cellular 2-HG assay using HCT116 mutant IDH1 cells (R132H). The class given is cell-based. Conditions: Homo sapiens, HCT-116; cellular 2-HG inhibition, 24 hours, RapidFire mass spectrometry; read-out: HCT116 IDH1 R132H Range. How it is done:
as §2

Chain of IDH1-R132H recombinant protein (O75874 whole entry R132H): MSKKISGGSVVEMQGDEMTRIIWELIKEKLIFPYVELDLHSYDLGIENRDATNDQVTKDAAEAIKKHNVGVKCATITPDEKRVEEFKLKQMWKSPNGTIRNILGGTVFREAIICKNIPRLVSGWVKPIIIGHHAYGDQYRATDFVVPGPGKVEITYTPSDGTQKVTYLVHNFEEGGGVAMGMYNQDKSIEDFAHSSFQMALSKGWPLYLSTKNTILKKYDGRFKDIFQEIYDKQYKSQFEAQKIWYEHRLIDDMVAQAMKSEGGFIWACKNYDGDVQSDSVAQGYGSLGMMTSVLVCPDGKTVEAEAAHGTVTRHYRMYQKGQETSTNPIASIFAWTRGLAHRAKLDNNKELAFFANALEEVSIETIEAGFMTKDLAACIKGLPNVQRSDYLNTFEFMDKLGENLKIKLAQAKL
Chain of IDH1-R132C recombinant protein (O75874 whole entry R132C): as the sequence (O75874 whole entry R132H) above, with H132C counted along it

Consider `N#Cc1ccc(NCc2cc3cc(Cl)ccc3[nH]c2=O)c(=O)[nH]1` [Compound I-4, 5-{[(6-chloro-2-oxo-1,2-dihydroquinolin-3-yl)methyl]amino}-6-oxo-1,6-dihydropyridine-2-carbonitrile], for which the values for the IC50 in assay [1] and in assay [2] were 100 to 1000 nM and 10 to 100 nM, respectively.
In the case of `O=c1[nH]c2ccc(Cl)cc2cc1CNc1ccc(Br)[nH]c1=O` [Compound I-7, 3-{[(6-bromo-2-oxo-1,2-dihydropyridin-3-yl)amino]methyl}-6-chloro-1,2-dihydroquinolin-2-one], the IC50 in assay [2] is over 1000 nM.
On the same count and under the same terms, the value for `O=c1[nH]c2ccc(Cl)cc2cc1CNc1ccc(C(F)(F)F)[nH]c1=O` [Compound I-8, 6-chloro-3-({[2-oxo-6-(trifluoromethyl)-1,2-dihydropyridin-3-yl]amino}methyl)-1,2-dihydroquinolin-2-one] was over 1000 nM.
Turning to `Cn1c(C(F)(F)F)ccc(NCc2cc3cc(Cl)ccc3[nH]c2=O)c1=O` [Compound I-9, 6-chloro-3-({[1-methyl-2-oxo-6-(trifluoromethyl)-1,2-dihydropyridin-3-yl]amino}methyl)-1,2-dihydroquinolin-2-one], the IC50 in assay [1] was over 10000 nM; in assay [2] it was 100 to 1000 nM.
As to `COC(=O)c1c[nH]c(=O)c(NCc2cc3cc(Cl)ccc3[nH]c2=O)c1` [Compound I-10, methyl 5-{[(6-chloro-2-oxo-1,2-dihydroquinolin-3-yl)methyl]amino}-6-oxo-1,6-dihydropyridine-3-carboxylate], the IC50 in assay [2] was over 1000 nM.
Regarding `Cn1cccc(NCc2cc3cc(Cl)c(OCc4ccccn4)cc3[nH]c2=O)c1=O` [Compound I-12, 6-chloro-3-{[(1-methyl-2-oxo-1,2-dihydropyridin-3-yl)amino]methyl}-7-(pyridin-2-ylmethoxy)-1,2-dihydroquinolin-2-one], the IC50 was over 10000 nM in assay [1] and 10 to 100 nM in assay [2].
Regarding `C[C@H](Nc1ccc(C#N)n(C)c1=O)c1cc2cc(Cl)ccc2[nH]c1=O` [Compound I-13, (S)-5-((1-(6-chloro-2-oxo-1,2-dihydroquinolin-3-yl)ethyl)amino)-1-methyl-6-oxo-1,6-dihydropyridine-2-carbonitrile], the IC50 in assay [3] and in assay [4] was 10 to 100 nM each time.
As for `C[C@H](Nc1ccc(C#N)[nH]c1=O)c1cc2cc(Cl)ccc2[nH]c1=O` [Compound I-14, 5-{[(1S)-1-(6-chloro-2-oxo-1,2-dihydroquinolin-3-yl)ethyl]amino}-6-oxo-1,6-dihydropyridine-2-carbonitrile], the IC50 was 100 to 1000 nM in assay [3], 100 to 1000 nM in assay [1], 10 to 100 nM in assay [4] and 10 to 100 nM in assay [2].
For the molecule `C[C@H](Nc1ccc(C#N)n(C)c1=O)c1cc2cc(Cl)c(F)cc2[nH]c1=O` [Compound I-16, 5-{[(1S)-1-(6-chloro-7-fluoro-2-oxo-1,2-dihydroquinolin-3-yl)ethyl]amino}-1-methyl-6-oxo-1,6-dihydropyridine-2-carbonitrile], the IC50 in assay [3] was in the range of 100 to 1000 nM; in assay [1], 100 to 1000 nM; in assay [4], 10 to 100 nM; in assay [2], 10 to 100 nM.
As to `C[C@H](Nc1ncc(C#N)n(C)c1=O)c1cc2cc(Cl)ccc2[nH]c1=O` [Compound I-17, 5-{[(1S)-1-(6-chloro-2-oxo-1,2-dihydroquinolin-3-yl)ethyl]amino}-1-methyl-6-oxo-1,6-dihydropyrazine-2-carbonitrile], the IC50 in assay [3] lay within 100 to 1000 nM; in assay [1], 100 to 1000 nM; in assay [4], 10 to 100 nM; in assay [2] it was 10 to 100 nM.
As for `C[C@@H](Nc1ccc(C#N)n(C)c1=O)c1cc2cc(Cl)c(F)cc2[nH]c1=O` [Compound I-18, 5-{[(1R)-1-(6-chloro-7-fluoro-2-oxo-1,2-dihydroquinolin-3-yl)ethyl]amino}-1-methyl-6-oxo-1,6-dihydropyridine-2-carbonitrile], the IC50 was over 10000 nM in assay [1] and over 1000 nM in assay [2].
For `COc1cc2[nH]c(=O)c([C@H](C)Nc3ccc(C#N)n(C)c3=O)cc2cc1Cl` [Compound I-20, 5-{[(1S)-1-(6-chloro-7-methoxy-2-oxo-1,2-dihydroquinolin-3-yl)ethyl]amino}-1-methyl-6-oxo-1,6-dihydropyridine-2-carbonitrile], the figures for the IC50 in assay [3] and in assay [4] were 10 to 100 nM and under 10 nM, respectively.
For `COc1cc2[nH]c(=O)c(C(C)Nc3ccc(C#N)n(C)c3=O)cc2cc1Cl` (stereo not drawn) [Compound I-22, 5-{[1-(6-chloro-7-methoxy-2-oxo-1,2-dihydroquinolin-3-yl)ethyl]amino}-1-methyl-6-oxo-1,6-dihydropyridine-2-carbonitrile], in that order: 10 to 100 nM and under 10 nM.
Take `C[C@H](Nc1ccc(C#N)n(C)c1=O)c1cc2cc(Cl)c(OCc3ccccn3)cc2[nH]c1=O` [Compound I-23, 5-{[(1S)-1-[6-chloro-2-oxo-7-(pyridin-2-ylmethoxy)-1,2-dihydroquinolin-3-yl]ethyl]amino}-1-methyl-6-oxo-1,6-dihydropyridine-2-carbonitrile]: the IC50 in assay [3] and in assay [4] was under 10 nM throughout.
Consider `CC(Nc1ccc(C#N)n(C)c1=O)c1cc2cc(Cl)c(OCc3ccccn3)cc2[nH]c1=O` (stereo not drawn) [Compound I-25, 5-({1-[6-chloro-2-oxo-7-(pyridin-2-ylmethoxy)-1,2-dihydroquinolin-3-yl]ethyl}amino)-1-methyl-6-oxo-1,6-dihydropyridine-2-carbonitrile], for which the IC50 in assay [3] and in assay [4] was under 10 nM throughout.
Regarding `C[C@H](Nc1ccc(C#N)n(C)c1=O)c1cc2cc(Cl)c(O[C@H](C)c3ccccn3)cc2[nH]c1=O` [Compound I-26, 5-(((S)-1-(6-chloro-2-oxo-7-((R)-1-(pyridin-2-yl)ethoxy)-1,2-dihydroquinolin-3-yl)ethyl)amino)-1-methyl-6-oxo-1,6-dihydropyridine-2-carbonitrile], the IC50 in assay [3] and in assay [4] was under 10 nM in each case.
Consider `C[C@H](Nc1ccc(C#N)n(C)c1=O)c1cc2cc(Cl)c(OCC3CC3)cc2[nH]c1=O` [Compound I-27, 5-{[(1S)-1-[6-chloro-7-(cyclopropylmethoxy)-2-oxo-1,2-dihydroquinolin-3-yl]ethyl]amino}-1-methyl-6-oxo-1,6-dihydropyridine-2-carbonitrile], for which the IC50 is 10 to 100 nM in assay [3] and under 10 nM in assay [4].
As to `CC(Nc1ccc(C#N)n(C)c1=O)c1cc2cc(Cl)c(OCC3CC(F)(F)C3)cc2[nH]c1=O` (stereo not drawn) [Compound I-28, 5-[(1-{6-chloro-7-[(3,3-difluorocyclobutyl)methoxy]-2-oxo-1,2-dihydroquinolin-3-yl}ethyl)amino]-1-methyl-6-oxo-1,6-dihydropyridine-2-carbonitrile], the IC50 in assay [3], in assay [4] and in assay [2] was 10 to 100 nM each time.
As to `CC(C)Oc1cc2[nH]c(=O)c([C@H](C)Nc3ccc(C#N)n(C)c3=O)cc2cc1Cl` [Compound I-29, 5-{[(1S)-1-[6-chloro-2-oxo-7-(propan-2-yloxy)-1,2-dihydroquinolin-3-yl]ethyl]amino}-1-methyl-6-oxo-1,6-dihydropyridine-2-carbonitrile], the IC50 in assay [3] and in assay [4] was 10 to 100 nM throughout.
